Test results taken from US20150175599A1, “FAAH Inhibitors” (Ironwood Pharmaceuticals, Inc., priority 2010, published 2015).

Experiment: Pharmacokinetic study, plasma level 2 hours after oral dosing in rats
Type: in vivo
Protocol: Pharmacokinetic studies were conducted to determine absorption and distribution profiles of the disclosed compounds which were orally administered to rats.
Compounds were formulated in a 1% DMA/99% Vitamin E TPGS vehicle. Prepared compounds were dosed via oral gavage (PO). Following the appropriate pretreatment time of 2 hours, rats were anesthetized with isoflurane gas. Blood was collected into tubes containing EDTA via retro-orbital eye bleed. Whole blood was spun in a micro-centrifuge at approximately 13,000 rpm for 5 minutes at room temperature. Separated plasma was subsequently aliquoted into eppendorf tubes. Samples were stored at −80° C. until prepped for analysis.
Plasma samples were thawed and the required amount of plasma for standards, blanks and dilutions were made. The dilutions were prepared before plating. Preparation of crash solution included cold acetonitrile+0.1% formic acid and 25 ng/mL of a FAAH inhibitor used as internal standard. solvent standards of the FAAH inhibitor being studied were preparation at 10, 30, 100, 300, 1000, 3000, 10000, 30000, 100000, and 300000 ng/mL in DMSO. Then a plasma standard curve was generated from the solvent standards (final concentrations of standards in plasma were: 0.1, 0.3, 1, 3, 10, 30, 100, 300, 1000, 3000 ng/mL). 50 μL of each plasma sample/dilution, standard, or blank was transferred into 96-well plates. To each well, 200 μL of cold crash solution was added. The plate was covered and gently vortexed. The plate was centrifuged at 3500 rpm, 4° C. for 10 min. 200 μL of each supernatant was transferred into new plates. The plates were dried under nitrogen in a TurboVap at 55° C. The sample in each well was re-suspended with 100 μL of 30% acetonitrile, covered and vortexed gently. The well solutions were analyzed by the LC/MS/MS conditions and specifications below.
HPLC column was a Clipeus C8, 2.1×30 mm, 5 μm, with Basic 8 guard column using 20 μL injections. Mobile phase used was mobile phase A: 0.1% Formic Acid in water and mobile phase B: 0.1% Formic Acid in 85:10:5 ACN:IPA:H2O. The flow rate for the run was 0.5 mL/min and the gradient for the 4 minute total run time was: 0.0 minutes

| Structure (SMILES) | 2 hr plasma level-ng/mL (rat, 10 mg/kg PO, 2 hr) |
| --- | --- |
| COc1ccc(Cn2c(C)c(C(=O)C(=O)Nc3ccnc(OC)c3)c3cc(OC)c(Cl)cc32)nc1 [Compound 98, 2-(6-chloro-5-methoxy-1-((5-methoxypyridin-2-yl)methyl)-2-methyl-1H-indol-3-yl)-N-(2-methoxypyridin-4-yl)-2-oxoacetamide] | C (C = between 100 nM and 1000 nM) |
| COc1cc(NC(=O)C(=O)c2c(C)n(Cc3ncc(F)cc3F)c3ccc(C)cc23)ccn1 [Compound 88, 2-(1-((3,5-difluoropyridin-2-yl)methyl)-2,5-dimethyl-1H-indol-3-yl)-N-(2-methoxypyridin-4-yl)-2-oxoacetamide] | D (D = greater than 1000 nM) |
| COc1cc(NC(=O)C(=O)c2c(C)n(Cc3ccc(Cl)cc3)c3ccc(OC)c(F)c23)ccn1 [Compound 59, 2-(1-(4-chlorobenzyl)-4-fluoro-5-methoxy-2-methyl-1H-indol-3-yl)-N-(2-methoxypyridin-4-yl)-2-oxoacetamide] | C (C = between 100 nM and 1000 nM) |
| COc1ccc2c(c1)c(C(=O)C(=O)Nc1ccnc(OC)c1)c(C)n2Cc1cnc(Cl)cn1 [Compound 12, 2-(1-((5-chloropyrazin-2-yl)methyl)-5-methoxy-2-methyl-1H-indol-3-yl)-N-(2-methoxypyridin-4-yl)-2-oxoacetamide] | C (C = between 100 nM and 1000 nM) |
| COc1cc(NC(=O)C(=O)c2c(C)n(Cc3ccc(Cl)cc3)c3ccc(N(C)C)cc23)ccn1 [Compound 17, 2-(1-(4-chlorobenzyl)-5-(dimethylamino)-2-methyl-1H-indol-3-yl)-N-(2-methoxypyridin-4-yl)-2-oxoacetamide] | C (C = between 100 nM and 1000 nM) |
| CNc1ccc2c(c1)c(C(=O)C(=O)Nc1ccnc(OC)c1)c(C)n2Cc1ccc(Cl)cc1 [Compound 9, 2-(1-(4-chlorobenzyl)-2-methyl-5-(methylamino)-1H-indol-3-yl)-N-(2-methoxypyridin-4-yl)-2-oxoacetamide] | C (C = between 100 nM and 1000 nM) |
| Cc1c(C(=O)C(=O)Nc2cccc(Cl)c2)c2cc(O)ccc2n1Cc1ccc(Cl)cc1 [Compound 71, 2-(1-(4-chlorobenzyl)-5-hydroxy-2-methyl-1H-indol-3-yl)-N-(3-chlorophenyl)-2-oxoacetamide] | A (A = Less than 10 nM) |
| COc1cc(NC(=O)C(=O)c2c(C)n(Cc3ccc(Cl)cc3)c3ccc(O)cc23)ccn1 [Compound 2, 2-(1-(4-chlorobenzyl)-5-hydroxy-2-methyl-1H-indol-3-yl)-N-(2-methoxypyridin-4-yl)-2-oxoacetamide] | A (A = Less than 10 nM) |
| COc1cc(NC(=O)C(=O)c2c(C)n(Cc3ccc(Cl)cn3)c3ccc(N(C)C)cc23)ccn1 [Compound 66, 2-(1-((5-chloropyridin-2-yl)methyl)-5-(dimethylamino)-2-methyl-1H-indol-3-yl)-N-(2-methoxypyridin-4-yl)-2-oxoacetamide] | D (D = greater than 1000 nM) |
| COc1cc(NC(=O)C(=O)c2c(C)n(Cc3ccc(F)cc3F)c3cc(F)c(OC)cc23)ccn1 [Compound 14, 2-(1-(2,4-difluorobenzyl)-6-fluoro-5-methoxy-2-methyl-1H-indol-3-yl)-N-(2-methoxypyridin-4-yl)-2-oxoacetamide] | D (D = greater than 1000 nM) |
| COc1cc(NC(=O)C(=O)c2c(C)n(Cc3ccc(Cl)cn3)c3cc(F)c(OC)cc23)ccn1 [Compound 64, 2-(1-((5-chloropyridin-2-yl)methyl)-6-fluoro-5-methoxy-2-methyl-1H-indol-3-yl)-N-(2-methoxypyridin-4-yl)-2-oxoacetamide] | C (C = between 100 nM and 1000 nM) |
| COc1cc(NC(=O)C(=O)c2c(C)n(Cc3ccc(Cl)cc3)c3ncc(C)cc23)ccn1 [Compound 76, 2-(1-(4-chlorobenzyl)-2,5-dimethyl-1H-pyrrolo[2,3-b]pyridin-3-yl)-N-(2-methoxypyridin-4-yl)-2-oxoacetamide] | C (C = between 100 nM and 1000 nM) |
| COc1cc(NC(=O)C(=O)c2c(C)n(Cc3ccc(Cl)cc3)c3ccc(CO)cc23)ccn1 [Compound 8, 2-(1-(4-chlorobenzyl)-5-(hydroxymethyl)-2-methyl-1H-indol-3-yl)-N-(2-methoxypyridin-4-yl)-2-oxoacetamide] | C (C = between 100 nM and 1000 nM) |
| COc1cnc2c(c1)c(C(=O)C(=O)Nc1ccnc(OC)c1)c(C)n2Cc1ncc(Cl)cc1F [Compound 34, 2-(1-((5-chloro-3-fluoropyridin-2-yl)methyl)-5-methoxy-2-methyl-1H-pyrrolo[2,3-b]pyridin-3-yl)-N-(2-methoxypyridin-4-yl)-2-oxoacetamide] | D (D = greater than 1000 nM) |
| COc1cc(NC(=O)C(=O)c2c(C)n(Cc3ccc(Cl)cc3)c3ccncc23)ccn1 [Compound 37, 2-(1-(4-chlorobenzyl)-2-methyl-1H-pyrrolo[3,2-c]pyridin-3-yl)-N-(2-methoxypyridin-4-yl)-2-oxoacetamide] | C (C = between 100 nM and 1000 nM) |
| COc1cc(NC(=O)C(=O)c2c(C)n(Cc3ccc(Cl)cc3)c3ccc(OC(F)(F)F)cc23)ccn1 [Compound 23, 2-(1-(4-chlorobenzyl)-2-methyl-5-(trifluoromethoxy)-1H-indol-3-yl)-N-(2-methoxypyridin-4-yl)-2-oxoacetamide] | C (C = between 100 nM and 1000 nM) |
| COc1cc(NC(=O)C(=O)c2c(C)n(Cc3ccc(Cl)cc3)c3ccc(COC(C)=O)cc23)ccn1 [Compound 10, (1-(4-chlorobenzyl)-3-(2-(2-methoxypyridin-4-ylamino)-2-oxoacetyl)-2-methyl-1H-indol-5-yl)methyl acetate] | C (C = between 100 nM and 1000 nM) |
| COc1cc(NC(=O)C(=O)c2c(C)n(Cc3ccc(Cl)cc3)c3ccc(Br)cc23)ccn1 [Compound 18, 2-(5-bromo-1-(4-chlorobenzyl)-2-methyl-1H-indol-3-yl)-N-(2-methoxypyridin-4-yl)-2-oxoacetamide] | D (D = greater than 1000 nM) |
| COc1cc(NC(=O)C(=O)c2c(C)n(Cc3ccc(Cl)cn3)c3ccc(Cl)cc23)ccn1 [Compound 63, 2-(5-chloro-1-((5-chloropyridin-2-yl)methyl)-2-methyl-1H-indol-3-yl)-N-(2-methoxypyridin-4-yl)-2-oxoacetamide] | C (C = between 100 nM and 1000 nM) |
| COc1ccc(Cn2c(C)c(C(=O)C(=O)Nc3ccnc(OC)c3)c3cc(OC)ccc32)nc1 [Compound 43, 2-(5-methoxy-1-((5-methoxypyridin-2-yl)methyl)-2-methyl-1H-indol-3-yl)-N-(2-methoxypyridin-4-yl)-2-oxoacetamide] | D (D = greater than 1000 nM) |
| COc1cc(NC(=O)C(=O)c2c(C)n(Cc3ccc(Cl)cc3)c3ccc(C(C)=O)cc23)ccn1 [Compound 5, 2-(5-acetyl-1-(4-chlorobenzyl)-2-methyl-1H-indol-3-yl)-N-(2-methoxypyridin-4-yl)-2-oxoacetamide] | C (C = between 100 nM and 1000 nM) |
